Assay results taken from publication PMC6627374, “Effects of the Pentapeptide P33 on Memory and Synaptic Plasticity in APP/PS1 Transgenic Mice: A Novel Mechanism Presenting the Protein Fe65 as a Target” (International Journal of Molecular Sciences, 2019).
Where a SMILES comes first, the peptide text is derived from it.

Test system: Iba1-positive microglia
Assay: Iba1 immunohistochemistry, microglia density
Type: in vivo, mouse
Settings: APP/PS1-vehicle vs. WT-vehicle, WT-P33, APP/PS1-P33; HC and CTX; 5 mg∙kg^−1 i.p., six months
Experimental: For this study, three-month-old male and female WT and APP/PS1 mice (n = 37) were used. Four groups were defined: WT-vehicle (physiological saline) (male n = 4; female n = 6), WT-P33 (male n = 6; female n = 5), APP/PS1-vehicle (male n = 3; female n = 5), and APP/PS1-P33 (male n = 6; female n = 2). Animals were subjected to intraperitoneal (i.p.) injections of P33 (5 mg∙kg^−1) for five days per week, over a course of six months. The mice were kept in groups under constant temperature (23 ± 0.5 °C), lighting (12-h/12-h light/dark cycle, lights on at 7:00 a.m.), and humidity (~50%). Standard mouse chow and tap water were supplied ad libitum. All behavioral experiments were performed in the light period. Handling was done daily at the same time.
Mice (five animals per group) were anaesthetized with chloral-hydrate (1 mg∙kg^−1) and perfused transcardially with PBS, followed by ice-cold 4% paraformaldehyde. The brains were removed, post-fixed in the same fixative, and immersed in a 30% sucrose solution containing 0.01% sodium-azide. […]
Slides were scanned by a digital slide scanner (Mirax Midi, 3DHistech Ltd., Budapest, Hungary), equipped with a Pannoramic Viewer 1.15.4, CaseViewer 2.1 program and a QuantCenter, HistoQuant module (3DHistech Ltd., Budapest, Hungary). For quantification, all of the sections were analyzed. […] Antibody-positive cell types from the ROIs were counted and quantified. […]

C[C@@H](N)C(=O)N1CCC[C@@H]1C(=O)N[C@H](C)C(=O)N1CCC[C@@H]1C(=O)N[C@H](CCC(=O)O)C(N)=O [P33] (HELM PEPTIDE1{[dA].[dP].[dA].[dP].[dE].[am]}$$$$V2.0)
density of Iba1-positive microglia (in words): higher in the APP/PS1-vehicle treated mice than in the other groups
